Assay results from patent US20230391783A1, “COMPOUND CONTAINING 2,4-THIAZOLE RING, PREPARATION METHOD THEREFOR, AND APPLICATION THEREOF” (SHANDONG UNIVERSITY, priority 2021, published 2023).

What was measured:
[1] = test system: lymphocytes (fresh spleen cells); experiment: Lymphocyte proliferation assay (ConA-induced spleen cells); assay type: cell-based, rat; details: for IC50: Rattus norvegicus, inhibition of lymphocyte proliferation, 5 μg/mL ConA; for IC50 / Inhibition rate (%): 48 hours; for Inhibition rate (%): lymphocyte proliferation induced with 5 μg/mL ConA, test concentration not given
Experimental: (§1) Lymphocytotoxicity test: rats were euthanized by spinal dislocation method, their spleens were aseptically removed and ground to make a single cell suspension. After removing red blood cells with 2 mL of red blood cell lysis buffer, the cell concentration was adjusted to 2×10^6 cells/mL using RPMI-1640 medium containing 10% fetal bovine serum (FBS). Next, 100 μL of the 2×10^6 cells/mL cell suspension and 100 μL of the appropriate concentration of the tested compound were added to each well of a 96-well plate, and the plate was incubated at 37° C. with 5% CO2 for 48 hours. At the end of the incubation period, 10 μL of CCK8 was added to each well, and the plate was returned to the incubator for 5-7 hours. The OD450 value was then measured at 450 nm using an enzyme-linked immunosorbent assay reader.
Lymphocyte proliferation assay: fresh spleen cells at a concentration of 2×10^6 cells/mL were incubated for 48 hours in an incubator maintained at 37° C. and 5% CO2 for 48 hours, and the culture medium was induced for cell proliferation with 5 μg/mL of ConA, and the appropriate concentration of the tested compound was added to test its inhibitory activity on lymphocyte proliferation. The test results of some compounds are shown in the table below and figures accompanying the application: […]

lymphocytes = experiment: Lymphocytotoxicity test (CCK8, no stimulation factor); assay type: cell-based, rat
Experimental: as §1
In addition, the toxicity of the compounds on lymphocytes was also tested in this example. The testing method was as follows: the cell density was 3×10^6 cells/mL, and 100 μL of the cell suspension containing 3×10^5 cells/well was added to each well of a 96-well plate without any stimulation factor.

[2] = test system: LPS-induced inflammatory factors IL-6, IL-2, TNF-a and IFN-y in serum; experiment: Inhibition of LPS-induced cytokine storm in mice; assay type: in vivo
Experimental: A total of 15 healthy male mice were randomly and equally divided into 3 groups, namely, control group, model group and drug administration group, with 5 mice in each group, labeled and their body weight recorded. Respectively administered: the control group and the model group were injected with normal saline via tail vein respectively, and the administration group was injected with the prepared in Examples 1-4 via tail vein respectively; the dose was 10 mg/kg (2 mg/mL; 50 μL/10 g). One hour later, LPS was injected intraperitoneally at 3 mg/kg (0.3 mg/mL, 100 μL/10 g). A second injection of the drug was given 5 hours later. Blood was collected from the mice 9 hours later, followed by euthanasia.
(§2) ELISA was performed to determine levels of IL-6, IL-2, TNF-a and IFN-y in serum.
Histopathological examination was performed on the administration group of compound IA-3: mouse lungs were fixed with 4% paraformaldehyde, and histopathological changes were observed by HE.

[3] = test system: CD-3 antibody-induced inflammatory factors IL-6, IL-2, TNF-a and IFN-y in serum; experiment: Inhibition of CD-3 antibody-induced cytokine storm in mice; assay type: in vivo; details: 10 mg/kg via tail vein, two injections, CD-3 antibody 100 μg/kg i.p., ELISA (FIG. 5)
Experimental: A total of 15 healthy male mice were randomly and equally divided into 3 groups, namely, control group, model group and drug administration group, with 5 mice in each group, labeled and their body weight recorded. Respectively administered: the control group and the model group were injected with normal saline via tail vein respectively, and the administration group was injected with the compounds prepared in Examples 1-4 via tail vein respectively; the dose was 10 mg/kg (2 mg/mL; 50 μL/10 g). CD-3 antibody was injected intraperitoneally, 100 μg/kg, after 0.5 hours. A second injection of the drug was given 5 hours later. Blood was collected from the mice 9 hours later, followed by euthanasia.
as §2

[4] = Pharmacokinetics and oral bioavailability in Wistar rats; assay type: in vivo; details: rat
Experimental: To prepare the standard series solution, a suitable amount of compound IA-3 was accurately weighed and placed in a 100 mL volumetric flask. The compound was dissolved in acetonitrile and diluted to the mark to produce a 25.0 μg/mL stock solution. The solution was mixed thoroughly by shaking and used for further analysis. An appropriate amount of the stock solution was taken separately, diluted with acetonitrile, and made up to the mark to prepare a series of standard solutions with concentrations of 5, 10, 25, 50, 100, 250, 500, and 1000 ng/mL. The solutions were stored in a refrigerator at 4° C. for later use.
Preparation of internal standard solution: a suitable amount of internal standard was accurately weighed and placed in a 100 mL volumetric flask. The internal standard was dissolved in acetonitrile and diluted to the mark to produce a 25 μg/mL stock solution. The solution was mixed thoroughly by shaking and used for further analysis. An accurately weighed amount of the stock solution was taken again and diluted with acetonitrile to prepare the internal standard reference solution at a concentration of 50 ng/mL. The solution was stored in a refrigerator at 4° C. for later use.
Preparation of plasma samples: 80 μL of rat plasma was taken, and 120 μL of internal standard was added. The mixture was vortexed for 2 min and centrifuged for 10 min. Then, 140 μL of the supernatant was collected and centrifuged for another 10 min. Finally, 10 μL of the supernatant was injected for analysis.
Standard Curve: 64 μL of blank rat plasma was mixed with 16 μL of the test compound standard series solution and 120 μL of acetonitrile solution containing the internal standard. The mixture was vortexed for 2 minutes and centrifuged for 10 minutes. Then, 140 μL of the supernatant was taken and centrifuged for another 10 minutes, 10 μL of the sample was injected and analyzed with HPLC-HR-MS. Instrumentation obtained the linear regression equation as the standard curve.
Sampling: eight healthy male Wistar rats were randomly divided into two groups (oral group and intravenous group), with four rats in each group. Rats were fasted for 12 h and provided with free access to water before the experiment. The oral group was administered with the test drug at a dose of 5 mg/kg, and the intravenous group was administered with 1 mg/kg. Blood samples of approximately 0.4 mL were collected from the rat orbital vein before and at 5 min, 15 min, 30 min, 1 h, 1.5 h, 2 h, 4 h, 6 h, 8 h, 10 h, and 12 h after administration, and immediately transferred to heparinized centrifuge tubes. Plasma was separated by centrifugation.
Sample determination and data processing: the rat plasma samples were processed according to the “Preparation of plasma samples” procedure and analyzed under the conditions described above. The non-compartmental model was applied to process the drug concentration data mentioned above, and the pharmacokinetic parameters were calculated using the DAD 2.0 software. The bioavailability was calculated according to the formula F=AUCig*Div/AUCiv*Dig*100%.

[5] = male, Wistar, plasma, iv, single injection 1 mg/kg
[6] = male, Wistar, plasma, single oral administration 5 mg/kg
[7] = single oral administration 5 mg/kg

Question: What does the source list for `O=C(NCc1cccnc1)c1csc(-c2cnn3cccnc23)n1` [IA-3]?
Answer: IC50 [1]: 13.2 ± 2.05 nM; Inhibition rate (%) [1]: 97.09%; inhibitory effect on lymphocyte proliferation (in words) ([1]; rat lymphocytes): particularly significant inhibitory effect on lymphocytes; safety index (in words) (lymphocytes): high safety index; toxicity on lymphocytes (in words) (lymphocytes; 5, 2.5, 1.25 and 0.625 μM, no stimulation factor (FIG. 2)): less cytotoxicity; reduction of LPS-induced IL-6, IL-2, TNF-a and IFN-y levels in serum ([2]; 10 mg/kg via tail vein, two injections, LPS 3 mg/kg i.p., ELISA (FIG. 3)): most significant effect on the reduction of the above factors; lung histopathology (H&E) ([2]; LPS model, 10 mg/kg via tail vein (FIG. 4)): reduced the severity of lung pathology; reduction of CD-3 antibody-induced IL-6, IL-2, TNF-a and IFN-y levels in serum [3]: most significant effect on the reduction of the above factors; AUC(0-t) [4, 5]: 717 ng·h/mL; MRT [4, 5]: 30.4 min; clearance [4, 5]: 45.1 mL/min/kg; half-life [4, 5]: 21.6 min; Vd ([4]; male, Wistar, plasma, iv, single injection 1 mg/kg, read-out: Vss): 1.08 L/kg; bioavailability ([4]; male, Wistar, plasma, oral, intragastric 5 mg/kg vs intravenous 1 mg/kg, read-out: relative oral bioavailability): 22.1%; AUC(0-inf) [4, 6]: 408 ng·h/mL; AUC(0-t) [4, 6]: 408 ng·h/mL; MRT [4, 6]: 76.2 min; half-life [4, 6]: 125 min; CL [4, 7]: 384 mL/min/kg; Vss [4, 7]: 69.5 L/kg

Question: With `O=C(OCc1cn(CC23CC4CC(CC(C4)C2)C3)nn1)c1csc(C(=O)c2c[nH]c3ccccc23)n1` [IIB-5] as the compound, how does the “Inhibition rate (%)” value [1] read?
Answer: The value was 59.01%.

Question: Which “Inhibition rate (%)” value [1] does the source give for `COC(=O)c1csc(C(=O)c2c[nH]c3ccccc23)n1` [ITE, reference compound] here?
Answer: Its value is 57.96%.

Question: Which “Inhibition rate (%)” value [1] does the source give for `Nc1ccccc1C(=O)CC(N)C(=O)O` (stereo not shown) [KYN, kynurenine, reference compound] here?
Answer: Its value is 51.65%.

Question: Which IC50 [1] does the source give for `C=CC[C@@H]1/C=C(\C)C[C@H](C)C[C@H](OC)[C@H]2O[C@@](O)(C(=O)C(=O)N3CCCC[C@H]3C(=O)O[C@H](/C(C)=C/[C@@H]3CC[C@@H](O)[C@H](OC)C3)[C@H](C)[C@@H](O)CC1=O)[C@H](C)C[C@@H]2OC` [Tacrolimus, reference compound] here?
Answer: The IC50 was 504 ± 16.2 nM.

Question: And the “Inhibition rate (%)” value [1]?
Answer: The value was 57.54%.
